Article PMC12016531 (Applied and Environmental Microbiology, 2025)

Assays:
[1] = tested on: L. monocytogenes ATCC 19111; test: MIC/MBC microdilution; assay type: cell-based, Listeria monocytogenes; conditions: lowest concentration that killed 99.9%; TSB-YE; highest concentration 100 µM
[2] = tested on: L. monocytogenes ATCC 15313; test: MIC/MBC microdilution; assay type: cell-based, Listeria monocytogenes; conditions: lowest concentration that killed 99.9%; TSB-YE; highest concentration 100 µM
[3] = tested on: L. monocytogenes CMCC 54002; test: MIC/MBC microdilution; assay type: cell-based, Listeria monocytogenes; conditions: lowest concentration that killed 99.9%; TSB-YE; highest concentration 100 µM
[4] = tested on: L. monocytogenes CICC 21632; test: MIC/MBC microdilution; assay type: cell-based, Listeria monocytogenes; conditions: lowest concentration that killed 99.9%; TSB-YE; highest concentration 100 µM
[5] = tested on: L. monocytogenes ATCC BAA-751; test: MIC/MBC microdilution; assay type: cell-based, Listeria monocytogenes; conditions: lowest concentration that killed 99.9%; TSB-YE; highest concentration 100 µM
[6] = tested on: L. monocytogenes ATCC 19112; test: MIC/MBC microdilution; assay type: cell-based, Listeria monocytogenes; conditions: lowest concentration that killed 99.9%; TSB-YE; highest concentration 100 µM
[7] = tested on: L. monocytogenes ATCC 19113; test: MIC/MBC microdilution; assay type: cell-based, Listeria monocytogenes; conditions: lowest concentration that killed 99.9%; TSB-YE; highest concentration 100 µM
[8] = tested on: L. monocytogenes ATCC 19114; test: MIC/MBC microdilution; assay type: cell-based, Listeria monocytogenes; conditions: lowest concentration that killed 99.9%; TSB-YE; highest concentration 100 µM
L. monocytogenes LM201 = test: MIC/MBC microdilution; assay type: cell-based, Listeria monocytogenes; conditions: lowest concentration that killed 99.9%; TSB-YE; highest concentration 100 µM
L. monocytogenes LM605 = test: MIC/MBC microdilution; assay type: cell-based, Listeria monocytogenes; conditions: lowest concentration that killed 99.9%; TSB-YE; highest concentration 100 µM
[9] = tested on: L. monocytogenes ATCC 13932; test: MIC/MBC microdilution; assay type: cell-based, Listeria monocytogenes; conditions: lowest concentration that killed 99.9%; TSB-YE; highest concentration 100 µM
[10] = tested on: L. monocytogenes ATCC 19116; test: MIC/MBC microdilution; assay type: cell-based, Listeria monocytogenes; conditions: lowest concentration that killed 99.9%; TSB-YE; highest concentration 100 µM
[11] = tested on: L. monocytogenes ATCC 19117; test: MIC/MBC microdilution; assay type: cell-based, Listeria monocytogenes; conditions: lowest concentration that killed 99.9%; TSB-YE; highest concentration 100 µM
L. monocytogenes NCT0890 = test: MIC/MBC microdilution; assay type: cell-based, Listeria monocytogenes; conditions: lowest concentration that killed 99.9%; TSB-YE; highest concentration 100 µM
[12] = tested on: Pseudomonas aeruginosa ATCC 27853; test: MIC/MBC microdilution; assay type: cell-based; conditions: NB, highest concentration 100 µM
Method: (§1) The microdilution method ([25]) was used to measure the MIC of mycoidesin against indicator strains (Table S2). HPLC-purified mycoidesin was weighed and dissolved in a liquid culture medium to prepare various concentrations of mycoidesin (200.00, 100.00, 50.00, 25.00, 12.50, 6.25, 3.13, 1.56, 0.78, 0.39, 0.20, and 0.10 µM). A volume of 50 µL of different concentrations of mycoidesin solutions and 50 µL culture (1 × 10^6 CFU/mL) of the indicator strain were mixed in 96-well plates. The final concentrations of mycoidesin were 100.00, 50.00, 25.00, 12.50, 6.25, 3.13, 1.56, 0.78, 0.39, 0.20, 0.10, and 0.05 µM. […] The minimum bactericidal concentration (MBC) was the lowest concentration that killed 99.9% of the bacterial population. Nisin A was purified (Cayman Chemical, USA) as previously described ([26]) and was used to measure and compare the MIC values of L. monocytogenes strains and mycoidesin.

[13] = tested on: Salmonella Typhimurium ATCC 14028; test: MIC/MBC microdilution; assay type: cell-based; conditions: NB, highest concentration 100 µM
Method: as §1

[14] = tested on: Serratia marcescens CMCC 41002; test: MIC/MBC microdilution; assay type: cell-based; conditions: NB, highest concentration 100 µM
Method: as §1

[15] = tested on: Shigella serogroups CMCC 51105; test: MIC/MBC microdilution; assay type: cell-based; conditions: NB, highest concentration 100 µM
Method: as §1

[16] = tested on: all tested gram-negative strains; test: MIC/MBC microdilution, summary over gram-negative strains; assay type: cell-based; conditions: up to 100 µM
Method: as §1

[17] = tested on: L. monocytogenes ATCC19111; test: Intracellular accumulation of UDP-MurNAc-pentapeptide; assay type: cell-based, Listeria monocytogenes; conditions: mycoidesin 1× and 2× MIC, vancomycin 10× MIC; 60 min; chloramphenicol 130 µg/mL pre-incubation 15 min; HPLC, MS
Method: (§2) Bacillus cereus CMCC63301 and L. monocytogenes ATCC19111 were grown to an OD600 of 0.3 and incubated with chloramphenicol (130 µg/mL) for 15 min. Mycoidesin (1× and 2× MIC) and vancomycin (10× MIC; positive control) were added and incubated for 60 min. The cells were collected, added to boiling water, treated for 15 min, centrifuged, and the supernatant was lyophilized. The intracellular accumulation of the peptidoglycan precursor UDP-MurNAc-pentapeptide was analyzed using HPLC (Hypersil ODS column) and identified via mass spectrometry ([27]).

[18] = tested on: Bacillus cereus CMCC63301; test: as above; assay type: cell-based; conditions: mycoidesin 1× and 2× MIC, vancomycin 10× MIC; 60 min; chloramphenicol 130 µg/mL pre-incubation 15 min; HPLC, MS
Method: as §2

[19] = tested on: Bacillus cereus CMCC63301; test: Time-kill curves (OD600 and CFU); assay type: cell-based
Excerpt: (§3) Cell growth was monitored hourly by measuring CFU on TSB plates and OD600 values of the cultures.

[20] = tested on: L. monocytogenes ATCC19111; test: Time-kill curves (OD600 and CFU); assay type: cell-based, Listeria monocytogenes
Excerpt: as §3

B. cereus CMCC63301 = test: Potassium release and SEM (cell membrane damage); assay type: cell-based, Bacillus cereus; conditions: potassium release 1×, 2×, 4× MIC, 1 h; SEM 2× and 4× MIC, 3 h, 30°C
Method: (§4) The amount of potassium released was measured using a HI96750 Potassium Photometer.
(§5) Bacillus cereus CMCC63301 and L. monocytogenes ATCC19111 were grown in TSB medium to an OD600 of 0.3. […] The cells were harvested after centrifugation (6,000 × g, 10 min), washed with PBS buffer thrice, and fixed with 2.5% (vol/vol) glutaraldehyde for 12 h at 4°C. Subsequently, the cells were subjected to gradient dehydration for 10 min, treated with isoamyl acetate for 10 min, dried with a lyophilizer for 12 h, coated with gold-palladium, and observed using a Zeiss Gemini360 instrument ([18]).

[21] = tested on: L. monocytogenes ATCC19111; test: Potassium release and SEM (cell membrane damage); assay type: cell-based, Listeria monocytogenes; conditions: potassium release 1×, 8×, 32× MIC, 1 h; SEM 8× and 32× MIC, 3 h, 30°C
Method: as §4, §5

[22] = lowest concentration that killed 99.9%

C/C=C1\NC(=O)CNC(=O)[C@H](CCSC)NC(=O)[C@@H]2CS[C@@H](C)[C@@H](NC(=O)[C@@H]3CSC[C@@H](NC(=O)[C@H](CC(C)C)NC(=O)[C@H](CC(N)=O)NC(=O)[C@@H](N)Cc4ccc(O)cc4)C(=O)N[C@@H](C)C(=O)N[C@@H](C)C(=O)N[C@@H]([C@@H](C)CC)C(=O)N[C@@H](C)C(=O)N[C@@H](CC(=O)O)C(=O)N[C@@H](C)C(=O)N[C@@H](C)C(=O)NCC(=O)N[C@@H](CC(C)C)C(=O)N[C@@H](CCCCN)C(=O)NCC(=O)N[C@@H](CC(N)=O)C(=O)N[C@@H](Cc4ccc(O)cc4)C(=O)NCC(=O)N[C@@H](CCCCN)C(=O)N[C@@H](Cc4ccccc4)C(=O)N3)C(=O)N[C@@H](Cc3ccc(O)cc3)C(=O)N[C@H](CSC[C@@H](C(=O)NCC(=O)N[C@@H](CO)C(=O)O)NC(=O)[C@H](CO)NC(=O)[C@H](C(C)C)NC1=O)C(=O)N[C@@H](C)C(=O)N[C@@H](CCC(=O)O)C(=O)N2 [mycoidesin]
MBC [1]: NA (No activity was detected even at the highest concentration of mycoidesin (100 µM)) | MBC [2]: NA (No activity was detected even at the highest concentration of mycoidesin (100 µM)) | MBC [3]: NA (No activity was detected even at the highest concentration of mycoidesin (100 µM)) | MBC [4]: NA (No activity was detected even at the highest concentration of mycoidesin (100 µM)) | MBC [5]: NA (No activity was detected even at the highest concentration of mycoidesin (100 µM)) | MBC [6]: NA (No activity was detected even at the highest concentration of mycoidesin (100 µM)) | MBC [7]: NA (No activity was detected even at the highest concentration of mycoidesin (100 µM)) | MBC [8]: NA (No activity was detected even at the highest concentration of mycoidesin (100 µM)) | MBC (L. monocytogenes LM201): NA (No activity was detected even at the highest concentration of mycoidesin (100 µM)) | MBC (L. monocytogenes LM605): NA (No activity was detected even at the highest concentration of mycoidesin (100 µM)) | MBC [9]: NA (No activity was detected even at the highest concentration of mycoidesin (100 µM)) | MBC [10]: NA (No activity was detected even at the highest concentration of mycoidesin (100 µM)) | MBC [11]: NA (No activity was detected even at the highest concentration of mycoidesin (100 µM)) | MBC (L. monocytogenes NCT0890): NA (No activity was detected even at the highest concentration of mycoidesin (100 µM)) | MBC [12, 22]: NA (No activity was detected even at the highest concentration of mycoidesin (100 µM)) | MIC ([12]; microdilution, 30°C, 16 h): NA (No activity was detected even at the highest concentration of mycoidesin (100 µM)) | MBC [13, 22]: NA (No activity was detected even at the highest concentration of mycoidesin (100 µM)) | MIC ([13]; microdilution, 30°C, 16 h): NA (No activity was detected even at the highest concentration of mycoidesin (100 µM)) | MBC [14, 22]: NA (No activity was detected even at the highest concentration of mycoidesin (100 µM)) | MIC ([14]; microdilution, 30°C, 16 h): NA (No activity was detected even at the highest concentration of mycoidesin (100 µM)) | MBC [15, 22]: NA (No activity was detected even at the highest concentration of mycoidesin (100 µM)) | MIC ([15]; microdilution, 30°C, 16 h): NA (No activity was detected even at the highest concentration of mycoidesin (100 µM)) | antimicrobial activity [16]: no antimicrobial activity | Intracellular accumulation of UDP-MurNAc-pentapeptide [17]: observed | Intracellular accumulation of UDP-MurNAc-pentapeptide [18]: observed | effect on growth ([19]; 1× MIC (1.56 µM), TSB, 30°C, 3 h, OD600 and CFU): suppressed the growth | effect on growth ([19]; 2× MIC (3.13 µM), TSB, 30°C, 3 h, OD600 and CFU): completely inhibited its growth | effect on viable cells ([19]; 4× and 8× MIC (6.25 and 12.50 µM), TSB, 30°C, 3 h, OD600 and CFU): caused cell death after 2 h of treatment | type of antimicrobial effect ([19]; high concentrations (2×–8× MIC, 3.13–12.5 µM)): bactericidal effect | type of antimicrobial effect ([19]; low concentration (1× MIC, 1.56 µM)): bacteriostatic effect | effect on growth ([20]; 1×–32× MIC (0.39–12.5 µM), TSB, 30°C, 3 h, OD600): suppressed by mycoidesin in a time- and concentration-dependent manner | type of antimicrobial effect ([20]; low and high concentrations (1×–32× MIC, 0.39–12.5 µM)): bacteriostatic activity | cell death (viable count) ([20]; up to 32× MIC (12.5 µM), 30°C, 3 h, CFU): did not cause L. monocytogenes cell membrane damage or cell death | cell membrane damage (B. cereus CMCC63301): caused damage to the cell membrane | cell membrane damage [21]: did not cause L. monocytogenes cell membrane damage or cell death
